Earlier results in patent US9289396B2, “Collagen-based implants for sustained delivery of drugs” (Euclid Systems Corporation, priority 2010, dated 2016).

Conditions: in phosphate buffer

For CC(C)OC(=O)CCC/C=C\C[C@@H]1[C@@H](CC[C@@H](O)CCc2ccccc2)[C@H](O)C[C@@H]1O [latanoprost, 13,14-dihydro-17-phenyl-18,19,20-trinor-prostaglandin F2a-1-isopropyl ester], the aqueous solubility is listed as “about 50 μg/mL”.

Conditions: not given

Point of comparison: CNCC(O)c1ccc(OC(=O)C(C)(C)C)c(OC(=O)C(C)(C)C)c1 (stereo not shown) [dipivefrin], “Approx. Solubility in water” value 58 µg/mL. Against it:
- C[C@H]1C[C@H]2[C@@H]3CCC4=CC(=O)C=C[C@]4(C)[C@@]3(F)[C@@H](O)C[C@]2(C)[C@@]1(O)C(=O)CO [betamethasone] — 120-fold lower, 0.5 µg/mL
- CCNC(=O)CCC/C=C\C[C@@H]1[C@@H](/C=C/[C@@H](O)CCc2ccccc2)[C@H](O)C[C@@H]1O [bimatoprost] — 2.9-fold lower, 20 µg/mL
- CN(CCCCCCCCCCN(C)C(=O)Oc1cccc([N+](C)(C)C)c1)C(=O)Oc1cccc([N+](C)(C)C)c1 [demecarium] — 580-fold lower, 0.1 µg/mL
- CN1CCC(=C2c3ccccc3CC(=O)c3sccc32)CC1 [ketotifen] — 7.2-fold lower, 8 µg/mL
- CCOC(=O)O[C@]1(C(=O)OCCl)CC[C@H]2[C@@H]3CCC4=CC(=O)C=C[C@]4(C)[C@H]3[C@@H](O)C[C@@]21C [loteprednol etabonate] — 8.3-fold lower, 7 µg/mL
- NC(=O)Cc1cccc(C(=O)c2ccccc2)c1N [nepafenac] — 2.9-fold lower, 20 µg/mL
- CC(C(=O)O)c1ccc(C(=O)c2cccs2)cc1 (stereo not shown) [suprofen] — within 1.5-fold, 40 µg/mL
- CC(C)OC(=O)CCC/C=C\C[C@@H]1[C@@H](/C=C/[C@@H](O)COc2cccc(C(F)(F)F)c2)[C@H](O)C[C@@H]1O [travoprost] — 7.2-fold lower, 8 µg/mL
